Tests used:
Type in all cases: functional
[1] = tested on: CCRF-CEM; experiment: Growth inhibition of human CCRF-CEM cells incubated for 48 hrs by sulforhodamine B assay
[2] = tested on: SK-MEL-28; experiment: Growth inhibition of human SK-MEL-28 cells assessed as cell growth at 1 uM incubated for 48 hrs by sulforhodamine B assay relative to control; conditions: SK-MEL-28, 48 h, read-out: Activity
[3] = tested on: OVCAR-5; experiment: Growth inhibition of human OVCAR5 cells assessed as cell growth at 0.01 uM incubated for 48 hrs by sulforhodamine B assay relative to control; conditions: OVCAR-5, 48 h, read-out: Activity
[4] = tested on: SNB-19; experiment: Growth inhibition of human SNB19 cells incubated for 48 hrs by sulforhodamine B assay; conditions: SNB-19, 48 h
[5] = tested on: HL-60(TB); experiment: Growth inhibition of human HL-60(TB) cells assessed as cell growth at 100 uM incubated for 48 hrs by sulforhodamine B assay relative to control; conditions: HL-60, 48 h, read-out: Activity
[6] = tested on: MDA-MB-231; experiment: Growth inhibition of human MDA-MB-231 cells incubated for 48 hrs by sulforhodamine B assay; conditions: MDA-MB-231, 48 h
[7] = tested on: KM12; experiment: Growth inhibition of human KM12 cells assessed as cell growth at 1 uM incubated for 48 hrs by sulforhodamine B assay relative to control; conditions: KM12, 48 h, read-out: Activity
[8] = tested on: MDA-MB-435; experiment: Growth inhibition of human MDA-MB-435 cells assessed as cell growth at 1 uM incubated for 48 hrs by sulforhodamine B assay relative to control; conditions: MDA-MB-435, 48 h, read-out: Activity
[9] = tested on: ACHN; experiment: Growth inhibition of human ACHN cells assessed as cell growth at 1 uM incubated for 48 hrs by sulforhodamine B assay relative to control; conditions: read-out: Activity
[10] = tested on: K562; experiment: Growth inhibition of human K562 cells assessed as cell growth at 0.1 uM incubated for 48 hrs by sulforhodamine B assay relative to control; conditions: K562, 48 h, read-out: Activity
[11] = tested on: TK-10; experiment: Growth inhibition of human TK10 cells incubated for 48 hrs by sulforhodamine B assay; conditions: TK-10, 48 h
[12] = tested on: NCI-H226; experiment: Growth inhibition of human NCI-H226 cells assessed as cell growth at 1 uM incubated for 48 hrs by sulforhodamine B assay relative to control; conditions: NCI-H226, 48 h, read-out: Activity
[13] = tested on: SNB-19; experiment: Growth inhibition of human SNB19 cells assessed as cell growth at 1 uM incubated for 48 hrs by sulforhodamine B assay relative to control; conditions: SNB-19, 48 h, read-out: Activity
[14] = tested on: CAKI-1; experiment: Growth inhibition of human Caki1 cells assessed as cell growth at 100 uM incubated for 48 hrs by sulforhodamine B assay relative to control; conditions: CAKI-1, 48 h, read-out: Activity
[15] = tested on: NCI-H23; experiment: Growth inhibition of human NCI-H23 cells assessed as cell growth at 0.01 uM incubated for 48 hrs by sulforhodamine B assay relative to control; conditions: NCI-H23, 48 h, read-out: Activity
[16] = tested on: MDA-MB-435; experiment: Growth inhibition of human MDA-MB-435 cells incubated for 48 hrs by sulforhodamine B assay; conditions: MDA-MB-435, 48 h
[17] = tested on: NCI/ADR-RES; experiment: Growth inhibition of human NCI-ADR-RES cells assessed as cell growth at 1 uM incubated for 48 hrs by sulforhodamine B assay relative to control; conditions: read-out: Activity
[18] = tested on: MOLT-4; experiment: Growth inhibition of human MOLT4 cells assessed as cell growth at 1 uM incubated for 48 hrs by sulforhodamine B assay relative to control; conditions: MOLT-4, 48 h, read-out: Activity
[19] = tested on: SK-MEL-5; experiment: Growth inhibition of human SK-MEL-5 cells assessed as cell growth at 0.01 uM incubated for 48 hrs by sulforhodamine B assay relative to control; conditions: SK-MEL-5, 48 h, read-out: Activity
[20] = tested on: SK-MEL-2; experiment: Growth inhibition of human SK-MEL-2 cells assessed as cell growth at 0.1 uM incubated for 48 hrs by sulforhodamine B assay relative to control; conditions: SK-MEL-2, 48 h, read-out: Activity
[21] = tested on: OVCAR-3; experiment: Growth inhibition of human OVCAR3 cells assessed as cell growth at 100 uM incubated for 48 hrs by sulforhodamine B assay relative to control; conditions: OVCAR-3, 48 h, read-out: Activity
[22] = tested on: HOP-62; experiment: Growth inhibition of human HOP62 cells assessed as cell growth at 1 uM incubated for 48 hrs by sulforhodamine B assay relative to control; conditions: HOP-62, 48 h, read-out: Activity
[23] = tested on: NCI-H23; experiment: Growth inhibition of human NCI-H23 cells assessed as cell growth at 1 uM incubated for 48 hrs by sulforhodamine B assay relative to control; conditions: NCI-H23, 48 h, read-out: Activity
[24] = tested on: Malme-3M; experiment: Growth inhibition of human MALME-3M cells assessed as cell growth at 0.01 uM incubated for 48 hrs by sulforhodamine B assay relative to control; conditions: read-out: Activity
[25] = tested on: UACC-257; experiment: Growth inhibition of human UACC257 cells incubated for 48 hrs by sulforhodamine B assay; conditions: UACC-257, 48 h
[26] = tested on: NCI-H522; experiment: Growth inhibition of human NCI-H522 cells assessed as cell growth at 0.1 uM incubated for 48 hrs by sulforhodamine B assay relative to control; conditions: NCI-H522, 48 h, read-out: Activity
[27] = tested on: UACC-257; experiment: Growth inhibition of human UACC257 cells assessed as cell growth at 0.1 uM incubated for 48 hrs by sulforhodamine B assay relative to control; conditions: UACC-257, 48 h, read-out: Activity
[28] = tested on: A549; experiment: Growth inhibition of human A549/ATCC cells assessed as cell growth at 0.01 uM incubated for 48 hrs by sulforhodamine B assay relative to control; conditions: A549, 48 h, read-out: Activity
[29] = tested on: NCI/ADR-RES; experiment: Growth inhibition of human NCI-ADR-RES cells incubated for 48 hrs by sulforhodamine B assay
[30] = read-out: LC50 (the source's name)
[31] = read-out: pLC50 (the source's name) (converted)

## c1ccc2[nH]c(-c3ccc(-c4nccc5c4[nH]c4ccccc45)cc3)nc2c1
[1]; read-out: GI50
  GI50: 3.12 µM
[1]; [30]
  CC50: > 1 µM
[1]; read-out: TGI
  TGI: 9.12 µM
[1]; read-out: pGI50 (converted)
  GI50: 3.09 µM
[1]; [31]
  CC50: > 100 µM
[1]; read-out: pTGI (converted)
  TGI: 9.12 µM
[2]
  growth at 1 µM: 102%
[3]
  growth at 0.01 µM: 94%
[4]; read-out: GI50
  GI50: 4.21 µM
[4]; [30]
  CC50: > 1 µM
[4]; read-out: pGI50 (converted)
  GI50: 4.17 µM
[4]; [31]
  CC50: > 100 µM
[4]; read-out: pTGI (converted)
  TGI: 30.2 µM
[5]
  growth at 100 µM: 40%
[6]; read-out: GI50
  GI50: 2.39 µM
[6]; read-out: TGI
  TGI: 5.83 µM
[6]; read-out: pGI50 (converted)
  GI50: 2.4 µM
[6]; [31]
  CC50: > 100 µM
[6]; read-out: pTGI (converted)
  TGI: 5.89 µM
[7]
  growth at 1 µM: 89%
[8]
  growth at 1 µM: 91%
[9]
  growth at 1 µM: 101%
[10]
  growth at 0.1 µM: 108%
[11]; read-out: GI50
  GI50: 2.07 µM
[11]; [30]
  CC50: 1.08 µM
[11]; read-out: TGI
  TGI: 4.59 µM
[11]; read-out: pGI50 (converted)
  GI50: 2.09 µM
[11]; [31]
  CC50: 10.7 µM
[11]; read-out: pTGI (converted)
  TGI: 4.57 µM
[12]
  growth at 1 µM: 96%
[13]
  growth at 1 µM: 88%
[14]
  growth at 100 µM: 76%
[15]
  growth at 0.01 µM: 95%
[16]; read-out: GI50
  GI50: 1.92 µM
[16]; [30]
  CC50: 9.51 µM
[16]; read-out: TGI
  TGI: 4.27 µM
[16]; read-out: pGI50 (converted)
  GI50: 1.91 µM
[16]; [31]
  CC50: 9.55 µM
[16]; read-out: pTGI (converted)
  TGI: 4.27 µM
[17]
  growth at 1 µM: 98%
[18]
  growth at 1 µM: 93%
[19]
  growth at 0.01 µM: 94%
[20]
  growth at 0.1 µM: 97%
[21]
  growth at 100 µM: 58%
[22]
  growth at 1 µM: 88%
[23]
  growth at 1 µM: 88%
[24]
  growth at 0.01 µM: 93%
[25]; read-out: GI50
  GI50: 1.83 µM
[25]; [30]
  CC50: 6.73 µM
[25]; read-out: TGI
  TGI: 3.5 µM
[25]; [31]
  CC50: 6.76 µM
[26]
  growth at 0.1 µM: 94%
[27]
  growth at 0.1 µM: 103%
[28]
  growth at 0.01 µM: 98%
[29]; read-out: GI50
  GI50: 3.5 µM
[29]; [30]
  CC50: > 1 µM
[29]; read-out: pGI50 (converted)
  GI50: 3.47 µM
[29]; read-out: pLC50 (converted)
  CC50: > 100 µM
[29]; read-out: pTGI (converted)
  TGI: 15.1 µM

## c1ccc2c3c([nH]c2c1)C(c1ccc(C2NCCc4c2[nH]c2ccccc42)cc1)NCC3 (racemic)
[1]; [30]
  CC50: 1.22 µM
[1]; read-out: pGI50 (converted)
  GI50: 0.457 µM
[1]; [31]
  CC50: 12.3 µM
[1]; read-out: pTGI (converted)
  TGI: 2.04 µM
[2]
  growth at 1 µM: 91%
[3]
  growth at 0.01 µM: 91%
[4]; read-out: GI50
  GI50: 1.73 µM
[4]; [30]
  CC50: 7.25 µM
[4]; read-out: TGI
  TGI: 3.54 µM
[4]; read-out: pGI50 (converted)
  GI50: 1.74 µM
[4]; [31]
  CC50: 7.24 µM
[4]; read-out: pTGI (converted)
  TGI: 3.55 µM
[5]
  growth at 100 µM: 83%
[6]; read-out: GI50
  GI50: 2.96 µM
[6]; [30]
  CC50: 3.64 µM
[6]; read-out: TGI
  TGI: 9.36 µM
[6]; read-out: pGI50 (converted)
  GI50: 0.295 µM
[6]; [31]
  CC50: 3.63 µM
[7]
  growth at 1 µM: 54%
[8]
  growth at 1 µM: 11%
[9]
  growth at 1 µM: 42%
[10]
  growth at 0.1 µM: 114%
[11]; read-out: GI50
  GI50: 1.98 µM
[11]; [30]
  CC50: 8.44 µM
[11]; read-out: TGI
  TGI: 4.09 µM
[11]; read-out: pGI50 (converted)
  GI50: 2 µM
[11]; [31]
  CC50: 8.51 µM
[11]; read-out: pTGI (converted)
  TGI: 4.07 µM
[12]
  growth at 1 µM: 94%
[13]
  growth at 1 µM: 88%
[14]
  growth at 100 µM: -98%
[15]
  growth at 0.01 µM: 95%
[16]; [30]
  CC50: 3.75 µM
[16]; read-out: pGI50 (converted)
  GI50: 0.363 µM
[16]; [31]
  CC50: 3.72 µM
[16]; read-out: pTGI (converted)
  TGI: 1.26 µM
[17]
  growth at 1 µM: 78%
[18]
  growth at 1 µM: 13%
[19]
  growth at 0.01 µM: 99%
[20]
  growth at 0.1 µM: 94%
[21]
  growth at 100 µM: 82%
[22]
  growth at 1 µM: 68%
[23]
  growth at 1 µM: 85%
[24]
  growth at 0.01 µM: 89%
[25]; read-out: GI50
  GI50: 1.19 µM
[25]; [30]
  CC50: 6.5 µM
[25]; read-out: TGI
  TGI: 3.52 µM
[25]; read-out: pGI50 (converted)
  GI50: 1.91 µM
[25]; [31]
  CC50: 6.46 µM
[25]; read-out: pTGI (converted)
  TGI: 3.55 µM
[26]
  growth at 0.1 µM: 105%
[27]
  growth at 0.1 µM: 104%
[28]
  growth at 0.01 µM: 104%
[29]; read-out: GI50
  GI50: 2.1 µM
[29]; [30]
  CC50: > 1 µM
[29]; read-out: TGI
  TGI: 7.81 µM
[29]; read-out: pGI50 (converted)
  GI50: 2.09 µM
[29]; read-out: pLC50 (converted)
  CC50: > 100 µM
[29]; read-out: pTGI (converted)
  TGI: 7.76 µM
